Experimental data: ChEMBL document CHEMBL5724914, “Linking interpersonal differences in gut microbiota composition and drug biotransformation activity” (2024)

Tests used:
[1] = The drug is tested on Z-027 corresponding to metagenome with ENA study accession number: PRJEB37062 and ENA sample accession number: ERS12561826 for biotransformation under anaerobic condition. The drug concentrations were measured over 9 timepoints collected between 0 and 24 hours of incubation by liquid-chromatography-coupled mass spectrometry (LC–MS); settings: 2 µM
[2] = The drug is tested on Z-023 corresponding to metagenome with ENA study accession number: PRJEB37062 and ENA sample accession number: ERS12561822 for biotransformation under anaerobic condition. The drug concentrations were measured over 9 timepoints collected between 0 and 24 hours of incubation by liquid-chromatography-coupled mass spectrometry (LC–MS); settings: 2 µM
[3] = The drug is tested on Z-020 corresponding to rabbit gut metagenome with ENA study accession number: PRJEB37062 and ENA sample accession number: ERS12561819 for biotransformation under anaerobic condition. The drug concentrations were measured over 9 timepoints collected between 0 and 24 hours of incubation by liquid-chromatography-coupled mass spectrometry (LC–MS); settings: 2 µM
[4] = The drug is tested on Z-019 corresponding to rat gut metagenome with ENA study accession number: PRJEB37062 and ENA sample accession number: ERS12561818 for biotransformation under anaerobic condition. The drug concentrations were measured over 9 timepoints collected between 0 and 24 hours of incubation by liquid-chromatography-coupled mass spectrometry (LC–MS); settings: 2 µM
[5] = The drug is tested on Z-014 corresponding to rat gut metagenome with ENA study accession number: PRJEB37062 and ENA sample accession number: ERS12561814 for biotransformation under anaerobic condition. The drug concentrations were measured over 9 timepoints collected between 0 and 24 hours of incubation by liquid-chromatography-coupled mass spectrometry (LC–MS); settings: 2 µM
[6] = The drug is tested on Z-010 corresponding to metagenome with ENA study accession number: PRJEB37062 and ENA sample accession number: ERS12561810 for biotransformation under anaerobic condition. The drug concentrations were measured over 9 timepoints collected between 0 and 24 hours of incubation by liquid-chromatography-coupled mass spectrometry (LC–MS); settings: 2 µM
[7] = The drug is tested on Z-008 corresponding to metagenome with ENA study accession number: PRJEB37062 and ENA sample accession number: ERS12561808 for biotransformation under anaerobic condition. The drug concentrations were measured over 9 timepoints collected between 0 and 24 hours of incubation by liquid-chromatography-coupled mass spectrometry (LC–MS); settings: 2 µM
[8] = The drug is tested on Z-003 corresponding to pig gut metagenome with ENA study accession number: PRJEB37062 and ENA sample accession number: ERS12561803 for biotransformation under anaerobic condition. The drug concentrations were measured over 9 timepoints collected between 0 and 24 hours of incubation by liquid-chromatography-coupled mass spectrometry (LC–MS); settings: 2 µM
[9] = The drug is tested on Z-002 corresponding to rabbit gut metagenome with ENA study accession number: PRJEB37062 and ENA sample accession number: ERS12561802 for biotransformation under anaerobic condition. The drug concentrations were measured over 9 timepoints collected between 0 and 24 hours of incubation by liquid-chromatography-coupled mass spectrometry (LC–MS); settings: 2 µM
[10] = The drug is tested on WLS-086 corresponding to human gut metagenome with ENA study accession number: PRJEB37062 and ENA sample accession number: ERS12561752 for biotransformation under anaerobic condition. The drug concentrations were measured over 9 timepoints collected between 0 and 24 hours of incubation by liquid-chromatography-coupled mass spectrometry (LC–MS); settings: 2 µM
[11] = The drug is tested on WLS-069 corresponding to human gut metagenome with ENA study accession number: PRJEB37062 and ENA sample accession number: ERS12561748 for biotransformation under anaerobic condition. The drug concentrations were measured over 9 timepoints collected between 0 and 24 hours of incubation by liquid-chromatography-coupled mass spectrometry (LC–MS); settings: 2 µM
[12] = The drug is tested on WLS-052 corresponding to human gut metagenome with ENA study accession number: PRJEB37062 and ENA sample accession number: ERS12561747 for biotransformation under anaerobic condition. The drug concentrations were measured over 9 timepoints collected between 0 and 24 hours of incubation by liquid-chromatography-coupled mass spectrometry (LC–MS); settings: 2 µM
[13] = The drug is tested on WLS-007 corresponding to human gut metagenome with ENA study accession number: PRJEB37062 and ENA sample accession number: ERS12561742 for biotransformation under anaerobic condition. The drug concentrations were measured over 9 timepoints collected between 0 and 24 hours of incubation by liquid-chromatography-coupled mass spectrometry (LC–MS); settings: 2 µM
[14] = human gut metagenome, 24 h, 2 µM
[15] = human gut metagenome, 24 h, 2 µM; remark: listed apart in the source
[16] = human gut metagenome, 24 h, 2 µM; remark: listed apart in the source
[17] = human gut metagenome, 24 h, 2 µM; remark: listed apart in the source
[18] = human gut metagenome, 24 h, 2 µM; remark: listed apart in the source
[19] = human gut metagenome, 24 h, 2 µM; remark: listed apart in the source
[20] = human gut metagenome, 24 h, 2 µM; remark: listed apart in the source
Also: call rule not given here.

Row | SMILES | Bacterial Biotransformation [1] | Bacterial Biotransformation [2] | Bacterial Biotransformation [3] | Bacterial Biotransformation [4] | Bacterial Biotransformation [5] | Bacterial Biotransformation [6] | Bacterial Biotransformation [7] | Bacterial Biotransformation [8] | Bacterial Biotransformation [9] | Bacterial Biotransformation [10] | Bacterial Biotransformation [11] | Bacterial Biotransformation [12] | Bacterial Biotransformation [13] | Bacterial Biotransformation [14] | Bacterial Biotransformation [15] | Bacterial Biotransformation [16] | Bacterial Biotransformation [17] | Bacterial Biotransformation [18] | Bacterial Biotransformation [19] | Bacterial Biotransformation [20]
1 | CC(C)(C)NC[C@H](O)COc1nsnc1N1CCOCC1.O=C(O)/C=C\C(=O)O [TIMOLOL MALEATE] | Compound NOT metabolized | Compound NOT metabolized | Compound NOT metabolized | Compound NOT metabolized | Compound NOT metabolized | Compound NOT metabolized | Compound NOT metabolized | Compound NOT metabolized | Compound NOT metabolized | Compound NOT metabolized | Compound NOT metabolized | Compound NOT metabolized | Compound NOT metabolized | Compound NOT metabolized | Compound NOT metabolized | Compound NOT metabolized | Compound NOT metabolized | Compound NOT metabolized | Compound NOT metabolized | Compound NOT metabolized
2 | CCOc1ccc2nc(S(N)(=O)=O)sc2c1 [ETHOXZOLAMIDE] | Compound NOT metabolized | Compound NOT metabolized | Compound NOT metabolized | Compound NOT metabolized | Compound NOT metabolized | Compound NOT metabolized | Compound NOT metabolized | Compound NOT metabolized | Compound NOT metabolized | Compound metabolized | Compound NOT metabolized | Compound NOT metabolized | Compound NOT metabolized | Compound NOT metabolized | Compound NOT metabolized | Compound NOT metabolized | Compound NOT metabolized | Compound NOT metabolized | Compound NOT metabolized | Compound NOT metabolized
3 | CCOc1ccccc1OCCN[C@H](C)Cc1ccc(OC)c(S(N)(=O)=O)c1.Cl [TAMSULOSIN HYDROCHLORIDE] | Compound NOT metabolized | Compound metabolized | Compound NOT metabolized | Compound NOT metabolized | Compound NOT metabolized | Compound NOT metabolized | Compound NOT metabolized | Compound metabolized | Compound metabolized | Compound metabolized | Compound NOT metabolized | Compound NOT metabolized | Compound NOT metabolized | Compound NOT metabolized | Compound NOT metabolized | Compound NOT metabolized | Compound NOT metabolized | Compound NOT metabolized | Compound NOT metabolized | Compound metabolized
4 | CCOC(=O)C1=C[C@]2(CC)CCCN3CCc4c(n1c1ccccc41)[C@@H]32 [VINPOCETINE] | Compound NOT metabolized | Compound metabolized | Compound metabolized | Compound NOT metabolized | Compound NOT metabolized | Compound metabolized | Compound NOT metabolized | Compound metabolized | Compound metabolized | Compound metabolized | Compound metabolized | Compound metabolized | Compound NOT metabolized | Compound NOT metabolized | Compound NOT metabolized | Compound metabolized | Compound NOT metabolized | Compound metabolized | Compound NOT metabolized | Compound metabolized
5 | O=P1(N(CCCl)CCCl)NCCCO1 (stereo not given) [CYCLOPHOSPHAMIDE ANHYDROUS] | Compound NOT metabolized | Compound NOT metabolized | Compound NOT metabolized | Compound NOT metabolized | Compound NOT metabolized | Compound NOT metabolized | Compound NOT metabolized | Compound NOT metabolized | Compound NOT metabolized | Compound metabolized | Compound metabolized | Compound NOT metabolized | Compound NOT metabolized | Compound NOT metabolized | Compound NOT metabolized | Compound NOT metabolized | Compound metabolized | Compound metabolized | Compound metabolized | Compound metabolized
